# Laboratory results published in patent publication US7968548B2, “Melanocortin receptor-specific piperazine compounds with diamine groups” (Palatin Technologies, Inc., priority 2005, dated 2011).
# Values joined by “and” are separate entries in the source; they are usually repeats but may differ in a detail not shown here. Equal values may be shown once.
# Tests used:
# hMC1-R = target: T1, hMC1-R (Homo sapiens, UniProt Q01726); assay: Competitive inhibition binding assay using [I125]-NDP-α-MSH, HEK-293 membranes, recombinant hMC1-R; settings: human recombinant MC1-R; for inhibition at 1 µM: 1 μM compound
# T1 construct: expressed in transfected cells; host or cells: HEK-293
# T1 sequence (Q01726 whole entry): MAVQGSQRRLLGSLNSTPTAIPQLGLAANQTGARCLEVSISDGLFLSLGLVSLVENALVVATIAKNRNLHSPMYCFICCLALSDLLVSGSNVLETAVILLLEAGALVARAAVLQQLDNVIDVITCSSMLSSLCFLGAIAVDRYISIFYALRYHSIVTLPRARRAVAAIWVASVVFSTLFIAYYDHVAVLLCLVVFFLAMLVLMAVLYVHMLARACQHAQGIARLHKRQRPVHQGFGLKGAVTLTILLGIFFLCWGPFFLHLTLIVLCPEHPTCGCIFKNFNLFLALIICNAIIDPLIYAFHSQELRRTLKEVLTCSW
# Method: (§1) A competitive inhibition binding assay was performed using membrane homogenates prepared from HEK-293 cells that express recombinant hMC4-R, hMC3-R, or hMC5-R, and from B-16 mouse melanoma cells (containing endogenous MC1-R). In some instances, HEK-293 cells that express recombinant hMC1-R were employed. In the examples that follow, all MC3-R, MC4-R and MC5-R values are for human recombinant receptors. MC1-R values are for B-16 mouse melanoma cells, unless the heading is “hMC1-R”, in which case the value is for human recombinant MC1-R. Assays were performed in 96 well GF/B Millipore multiscreen filtration plates (MAFB NOB10) pre-coated with 0.5% bovine serum albumin (Fraction V). […] After incubation for 60 minutes at 37° C., the assay mixture was filtered and the membranes washed three times with ice-cold buffer. Filters were dried and counted in a gamma counter for bound radioactivity. […] Maximal specific binding (100%) was defined as the difference in radioactivity (cpm) bound to cell membranes in the absence and presence of 1 μM NDP-α-MSH. […] Each assay was conducted in triplicate and the actual mean values are described, with results less than 0% reported as 0%. Ki values for test compounds were determined using Graph-Pad Prism® curve-fitting software.
# MC3-R = target: T2, MC3-R (Homo sapiens, UniProt P41968); assay: Competitive inhibition binding assay using [I125]-NDP-α-MSH, HEK-293 membranes, recombinant hMC3-R; settings: for inhibition at 1 µM: 1 μM compound
# T2 construct: expressed in transfected cells; host or cells: HEK-293
# T2 sequence (P41968 whole entry): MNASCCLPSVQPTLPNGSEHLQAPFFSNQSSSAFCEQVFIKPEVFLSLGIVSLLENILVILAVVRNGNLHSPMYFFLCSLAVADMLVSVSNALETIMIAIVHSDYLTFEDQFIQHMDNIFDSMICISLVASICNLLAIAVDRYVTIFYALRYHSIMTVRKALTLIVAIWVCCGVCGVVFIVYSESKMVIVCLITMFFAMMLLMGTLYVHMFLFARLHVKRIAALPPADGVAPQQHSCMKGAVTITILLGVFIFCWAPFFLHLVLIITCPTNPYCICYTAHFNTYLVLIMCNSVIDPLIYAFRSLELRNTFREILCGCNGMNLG
# Method: as §1
# MC5-R = target: T3, MC5-R (Homo sapiens, UniProt P33032); assay: Competitive inhibition binding assay using [I125]-NDP-α-MSH, HEK-293 membranes, recombinant hMC5-R; settings: for inhibition at 1 µM: 1 μM compound
# T3 construct: expressed in transfected cells; host or cells: HEK-293
# T3 sequence (P33032 whole entry): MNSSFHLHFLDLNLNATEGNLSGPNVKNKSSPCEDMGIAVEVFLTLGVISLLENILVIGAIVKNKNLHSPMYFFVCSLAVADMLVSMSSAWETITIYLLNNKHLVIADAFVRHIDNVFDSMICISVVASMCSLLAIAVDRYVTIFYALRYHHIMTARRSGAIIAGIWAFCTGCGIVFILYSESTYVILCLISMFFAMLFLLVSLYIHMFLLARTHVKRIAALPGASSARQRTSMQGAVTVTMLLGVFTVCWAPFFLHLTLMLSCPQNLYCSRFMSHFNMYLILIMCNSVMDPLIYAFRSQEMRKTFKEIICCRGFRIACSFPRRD
# Method: as §1
# MC4-R = MC4-R (Homo sapiens, UniProt P32245); assay: Competitive inhibition binding assay using [I125]-NDP-α-MSH, HEK-293 membranes, recombinant hMC4-R; parameters: expressed in transfected cells; host or cells: HEK-293; settings: for inhibition at 1 µM: 1 μM compound
# Sequence of MC4-R (P32245 whole entry): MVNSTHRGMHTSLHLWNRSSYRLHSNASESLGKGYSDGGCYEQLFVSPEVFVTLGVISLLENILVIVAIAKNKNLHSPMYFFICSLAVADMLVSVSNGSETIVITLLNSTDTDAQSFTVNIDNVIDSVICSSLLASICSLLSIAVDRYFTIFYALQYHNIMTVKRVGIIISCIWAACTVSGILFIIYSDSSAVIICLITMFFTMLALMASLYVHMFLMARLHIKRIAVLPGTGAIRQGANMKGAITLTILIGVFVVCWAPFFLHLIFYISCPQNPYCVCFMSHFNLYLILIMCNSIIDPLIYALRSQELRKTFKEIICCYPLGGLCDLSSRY
# Method: as §1
SMILES,inhibition at 1 µM (hMC1-R),inhibition at 1 µM (MC3-R),inhibition at 1 µM (MC5-R),Ki (MC4-R),inhibition at 1 µM (MC4-R),Ki (hMC1-R),Ki (MC3-R),Ki (MC5-R)
"Cc1ccc(C[C@@H](N)C(=O)N2C[C@H](CCCNCCN)N(C(=O)[C@H](N)Cc3ccc(C)cc3C)C[C@H]2CC(C)C)c(C)c1 [Example 17, (R)-2-Amino-1-{(2S,5R)-4-[(R)-2-amino-3-(2,4-dimethyl-phenyl)-propionyl]-2-[3-(2-amino-ethylamino)-propyl]-5-isobutyl-piperazin-1-yl}-3-(2,4-dimethyl-phenyl)-propan-1-one]",22%,14%,38%,60 nM,83%,,,
"Cc1ccc(C[C@@H](N)C(=O)N2C[C@@H](C)N(C(=O)[C@H](N)Cc3ccc(C)cc3C)C[C@@H]2CCCNCCN)c(C)c1 [Example 26, (R)-2-Amino-1-{(2R,5S)-4-[(R)-2-amino-3-(2,4-dimethyl-phenyl)-propionyl]-5-[3-(2-amino-ethylamino)-propyl]-2-methyl-piperazin-1-yl}-3-(2,4-dimethyl-phenyl)-propan-1-one]",53%,57%,76%,64 nM,96%,,,
"Cc1ccc(C[C@@H](N)C(=O)N2C[C@H](CCCCNCCN)N(C(=O)[C@H](N)Cc3ccc(C)cc3C)C[C@H]2CC(C)C)c(C)c1 [Example 21, (R)-2-Amino-1-{(2R,5S)-4-[(R)-2-amino-3-(2,4-dimethyl-phenyl)-propionyl]-5[4-(2-amino-ethylamino)-butyl]-2-isobutyl-piperazin-1-yl}-3-(2,4-dimethyl-phenyl)-propan-1-one]",39%,55%,51%,83 nM,95%,567 nM,1050 nM,450 nM
"C[C@@H]1CN(C(=O)[C@H](N)Cc2ccc(Cl)c(Cl)c2)[C@@H](CCCNCCN)CN1C(=O)[C@H](N)Cc1ccc(Cl)c(Cl)c1 [Example 28, (R)-2-Amino-1-{(2R,5S)-4-[(R)-2-amino-3-(3,4-dichloro-phenyl)-propionyl]-5-[3-(2-amino-ethylamino)-propyl]-2-methyl-piperazin-1-yl}-3-(3,4-dichloro-phenyl)-propan-1-one]",77%,94%,84%,19 nM,96%,,,
"C[C@@H]1CN(C(=O)[C@H](N)Cc2ccc3ccccc3c2)[C@@H](CCCNCCN)CN1C(=O)[C@H](N)Cc1ccc2ccccc2c1 [Example 27, (R)-2-Amino-1-[(2R,5S)-5-[3-(2-amino-ethylamino)-propyl]-4-((R)-2-amino-3-naphthalen-2-yl-propionyl)-2-methyl-piperazin-1-yl]-3-naphthalen-2-yl-propan-1-one]",62%,79%,73%,42 nM,93%,,,
"NCCNCCCC[C@H]1CN(C(=O)[C@H](N)Cc2ccc(Cl)cc2Cl)[C@H](CC2CCCCC2)CN1C(=O)[C@H](N)Cc1ccc(Cl)cc1Cl [Example 24, (R)-2-Amino-1-{(2R,5S)-4-[(R)-2-amino-3-(2,4-dichloro-phenyl)-propionyl]-5-[4-(2-amino-ethylamino)-butyl]-2-cyclohexylmethyl-piperazin-1-yl}-3-(2,4-dichloro-phenyl)-propan-1-one]",,,,17 nM,,270 nM,443 nM,139 nM
"CC(C)C[C@@H]1CN(C(=O)[C@H](N)Cc2ccc(Cl)cc2Cl)[C@@H](CCCCNCCN)CN1C(=O)[C@H](N)Cc1ccc(Cl)cc1Cl [Example 19, (R)-2-Amino-1-{(2R,5S)-4-[(R)-2-amino-3-(2,4-dichloro-phenyl)-propionyl]-5-[4-(2-amino-ethylamino)-butyl]-2-isobutyl-piperazin-1-yl}-3-(2,4-dichloro-phenyl)-propan-1-one]",36%,59%,47%,36 nM,97%,754 nM,327 nM,296 nM
"Cc1ccc(C[C@@H](N)CN2C[C@@H](C)N(C(=O)Cc3ccc4ccccc4c3)C[C@@H]2Cc2ccc(NCCN)cc2)c(C)c1 [Example 11, 1-{(2R,5S)-4-[(R)-2-Amino-3-(2,4-dimethyl-phenyl)-propyl]-5-[4-(2-amino-ethylamino)-benzyl]-2-methyl-piperazin-1-yl}-2-naphthalen-2-yl-ethanone]",3%,29%,36%,,39%,,,
"CC(C)C[C@@H]1CN(C[C@H](N)Cc2ccc(Cl)cc2Cl)[C@@H](CCCNCCCCN)CN1C(=O)Cc1ccc2ccccc2c1 [Example 30, 1-{(2R,5S)-5-[3-(4-Amino-butylamino)-propyl]-4-[(R)-2-amino-3-(2,4-dichloro-phenyl)-propyl]-2-isobutyl-piperazin-1-yl}-2-naphthalen-2-yl-ethanone]",37%,65%,84%,,91%,,,
"NCCNCCC[C@H]1CN(C(=O)[C@H](N)Cc2ccc3ccccc3c2)[C@H](CC2CCCCC2)CN1C(=O)[C@H](N)Cc1ccc2ccccc2c1 [Example 16, (R)-2-Amino-1-[(2R,5S)-5-[3-(2-amino-ethylamino)-propyl]-4-((R)-2-amino-3-naphthalen-2-yl-propionyl)-2-cyclohexylmethyl-piperazin-1-yl]-3-naphthalen-2-yl-propan-1-one]",,,,99 nM and 81 nM,,22 nM,36 nM,30 nM
"CC(C)C[C@@H]1CN(C[C@@H](Cc2ccc(Cl)cc2Cl)N(C)C)[C@@H](CCCN(C)CCN)CN1C(=O)Cc1ccc2ccccc2c1 [Example 32, 1-{(2R,5S)-5-{3-[(2-Amino-ethyl)-methyl-amino]-propyl}-4-[(R)-3-(2,4-dichloro-phenyl)-2-dimethylamino-propyl]-2-isobutyl-piperazin-1-yl}-2-naphthalen-2-yl-ethanone]",25%,43%,65%,,91%,,,
"C[C@@H]1CN(C(=O)[C@H](N)Cc2ccc(Cl)cc2Cl)[C@@H](CCCNCCN)CN1C(=O)[C@H](N)Cc1ccc(Cl)cc1Cl [Example 25, (R)-2-Amino-1-{(2R,5S)-4-[(R)-2-amino-3-(2,4-dichloro-phenyl)-propionyl]-5-[3-(2-amino-ethylamino)-propyl]-2-methyl-piperazin-1-yl}-3-(2,4-dichloro-phenyl)-propan-1-one]",67%,89%,93%,41 nM,98%,,,
"CC(C)C[C@@H]1CN(C[C@H](N)Cc2ccc(Cl)cc2Cl)[C@@H](CCCNCCCCCN)CN1C(=O)Cc1ccc2ccccc2c1 [Example 31, 1-{(2R,5S)-4-[(R)-2-Amino-3-(2,4-dichloro-phenyl)-propyl]-5-[3-(5-amino-pentylamino)-propyl]-2-isobutyl-piperazin-1-yl}-2-naphthalen-2-yl-ethanone]",36%,59%,87%,,91%,,,
"NCCNCCC[C@H]1CN(C(=O)[C@H](N)Cc2ccc(Cl)cc2Cl)[C@H](CC2CCCCC2)CN1C(=O)[C@H](N)Cc1ccc(Cl)cc1Cl [Example 15, (R)-2-Amino-1-{(2R,5S)-4-[(R)-2-amino-3-(2,4-dichloro-phenyl)-propionyl]-5-[3-(2-amino-ethylamino)-propyl]-2-cyclohexylmethyl-piperazin-1-yl}-3-(2,4-dichloro-phenyl)-propan-1-one]",27%,36%,31%,74 nM,83%,,,
"CC(C)C[C@@H]1CN(C[C@H](N)Cc2ccc(Cl)cc2Cl)[C@@H](CCCNCCCN)CN1C(=O)Cc1ccc2ccccc2c1 [Example 29, 1-{(2R,5S)-4-[(R)-2-Amino-3-(2,4-dichloro-phenyl)-propyl]-5-[3-(3-amino-propylamino)-propyl]-2-isobutyl-piperazin-1-yl}-2-naphthalen-2-yl-ethanone]",33%,65%,84%,,91%,,,
"Cc1ccc(C[C@@H](N)C(=O)N2C[C@H](CCCNCCN)N(C(=O)[C@H](N)Cc3ccc(C)cc3C)C[C@H]2CC2CCCCC2)c(C)c1 [Example 14, (R)-2-Amino-1-{(2R,5S)-4-[(R)-2-amino-3-(2,4-dimethyl-phenyl)-propionyl]-5-[3-(2-amino-ethylamino)-propyl]-2-cyclohexylmethyl-piperazin-1-yl}-3-(2,4-dimethyl-phenyl)-propan-1-one]",35%,22%,43%,81 nM,83%,,,
